# Data as given in ChEMBL document CHEMBL5150032, “Sunitinib-based Proteolysis Targeting Chimeras (PROTACs) reduced the protein levels of FLT-3 and c-KIT in leukemia cell lines” (Bioorg Med Chem Lett, 2022).
# Activity calls are given as the source filed them. The calls are words filed in the database; no cut-off is given here. Residues, ends and D or L forms follow the SMILES beside them. *: point of attachment. Cbz = O=C(OCc1ccccc1)*
# Legend:
# HL-60 [1] = test: Antiproliferative activity against human HL-60 cells assessed as inhibition of cell growth incubated for 48 hrs by CCK-8 assay; assay type: functional, cell-based; conditions: HL-60, 48 h
# A498 [2] = test: Antiproliferative activity against human A498 cells assessed as inhibition of cell growth incubated for 48 hrs by CCK-8 assay; assay type: functional, cell-based; conditions: A498, 48 h
# K562 [3] = test: Antiproliferative activity against human K562 cells assessed as inhibition of cell growth incubated for 48 hrs by CCK-8 assay; assay type: functional, cell-based; conditions: K562, 48 h
# [4] = target: T1, von Hippel-Lindau disease tumor suppressor/Receptor-type tyrosine-protein kinase FLT3 (Homo sapiens) (UniProt P36888+P40337); test: PROTAC activity at VHL/FLT-3 in human HL-60 cells assessed as reduction in FLT-3 protein level at 1 uM incubated for 1 hrs by Western blot analysis; assay type: cell-based
# T1 sequence (P36888 27-993 limits assumed): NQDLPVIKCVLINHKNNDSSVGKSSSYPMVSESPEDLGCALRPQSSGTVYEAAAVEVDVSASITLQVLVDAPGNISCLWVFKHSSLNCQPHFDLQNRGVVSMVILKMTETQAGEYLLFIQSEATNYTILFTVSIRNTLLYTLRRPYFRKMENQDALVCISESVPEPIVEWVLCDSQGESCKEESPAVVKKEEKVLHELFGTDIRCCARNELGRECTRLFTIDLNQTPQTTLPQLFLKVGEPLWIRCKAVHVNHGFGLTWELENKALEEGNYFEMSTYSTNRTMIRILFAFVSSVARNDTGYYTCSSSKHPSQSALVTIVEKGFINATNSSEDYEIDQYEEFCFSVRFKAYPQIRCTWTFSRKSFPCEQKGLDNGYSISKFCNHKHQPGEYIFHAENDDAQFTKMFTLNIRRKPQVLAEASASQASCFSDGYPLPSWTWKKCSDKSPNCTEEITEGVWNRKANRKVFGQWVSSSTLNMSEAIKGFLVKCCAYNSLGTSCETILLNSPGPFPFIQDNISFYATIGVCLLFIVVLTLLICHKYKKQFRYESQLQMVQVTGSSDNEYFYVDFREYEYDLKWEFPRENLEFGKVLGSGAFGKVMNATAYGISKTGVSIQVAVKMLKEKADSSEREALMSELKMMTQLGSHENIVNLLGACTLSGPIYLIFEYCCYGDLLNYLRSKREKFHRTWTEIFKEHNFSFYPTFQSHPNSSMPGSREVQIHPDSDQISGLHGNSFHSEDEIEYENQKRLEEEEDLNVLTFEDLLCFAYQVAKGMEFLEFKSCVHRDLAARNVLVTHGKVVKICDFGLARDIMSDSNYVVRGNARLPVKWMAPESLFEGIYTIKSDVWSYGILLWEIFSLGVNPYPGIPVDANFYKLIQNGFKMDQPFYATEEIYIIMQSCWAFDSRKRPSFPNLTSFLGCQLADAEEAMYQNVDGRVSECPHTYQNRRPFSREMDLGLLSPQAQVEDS
# T1 sequence (P40337 whole entry partner): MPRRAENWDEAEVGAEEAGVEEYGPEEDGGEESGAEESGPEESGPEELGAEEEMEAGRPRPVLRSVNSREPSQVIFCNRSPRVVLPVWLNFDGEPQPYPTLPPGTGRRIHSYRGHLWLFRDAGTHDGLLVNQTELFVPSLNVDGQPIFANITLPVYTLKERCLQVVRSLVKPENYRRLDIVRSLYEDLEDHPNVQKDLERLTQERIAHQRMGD
# HL-60 [5] = test: Antiproliferative activity against human HL-60 cells assessed as reduction in cell viability at 20 uM incubated for 24 hrs by CCK-8 assay; assay type: functional, cell-based
# [6] = Cytotoxicity against human NCM460 cells assessed as inhibition of cell growth; assay type: toxicity, cell-based
# K562 [7] = test: Antiproliferative activity against human K562 cells assessed as reduction in cell viability at 20 uM incubated for 24 hrs by CCK-8 assay; assay type: functional, cell-based
# A498 [8] = test: Antiproliferative activity against human A498 cells assessed as reduction in cell viability at 20 uM incubated for 24 hrs by CCK-8 assay; assay type: functional, cell-based
# [9] = target: T1, von Hippel-Lindau disease tumor suppressor/Receptor-type tyrosine-protein kinase FLT3 (Homo sapiens); test: PROTAC activity at VHL/FLT-3 in human K562 cells assessed as reduction in FLT-3 protein level at 20 uM incubated for 48 hrs by Western blot analysis; assay type: cell-based
# [10] = target: T2, von Hippel-Lindau disease tumor suppressor/Mast/stem cell growth factor receptor Kit (Homo sapiens) (UniProt P10721+P40337); test: PROTAC activity at VHL/c-KIT in human HL-60 cells assessed as reduction in c-KIT protein level at >10 uM measured at 24 to 48 hrs by Western blot analysis; assay type: cell-based; conditions: time 24-48 hrs
# T2 sequence (P10721 whole entry, looked up): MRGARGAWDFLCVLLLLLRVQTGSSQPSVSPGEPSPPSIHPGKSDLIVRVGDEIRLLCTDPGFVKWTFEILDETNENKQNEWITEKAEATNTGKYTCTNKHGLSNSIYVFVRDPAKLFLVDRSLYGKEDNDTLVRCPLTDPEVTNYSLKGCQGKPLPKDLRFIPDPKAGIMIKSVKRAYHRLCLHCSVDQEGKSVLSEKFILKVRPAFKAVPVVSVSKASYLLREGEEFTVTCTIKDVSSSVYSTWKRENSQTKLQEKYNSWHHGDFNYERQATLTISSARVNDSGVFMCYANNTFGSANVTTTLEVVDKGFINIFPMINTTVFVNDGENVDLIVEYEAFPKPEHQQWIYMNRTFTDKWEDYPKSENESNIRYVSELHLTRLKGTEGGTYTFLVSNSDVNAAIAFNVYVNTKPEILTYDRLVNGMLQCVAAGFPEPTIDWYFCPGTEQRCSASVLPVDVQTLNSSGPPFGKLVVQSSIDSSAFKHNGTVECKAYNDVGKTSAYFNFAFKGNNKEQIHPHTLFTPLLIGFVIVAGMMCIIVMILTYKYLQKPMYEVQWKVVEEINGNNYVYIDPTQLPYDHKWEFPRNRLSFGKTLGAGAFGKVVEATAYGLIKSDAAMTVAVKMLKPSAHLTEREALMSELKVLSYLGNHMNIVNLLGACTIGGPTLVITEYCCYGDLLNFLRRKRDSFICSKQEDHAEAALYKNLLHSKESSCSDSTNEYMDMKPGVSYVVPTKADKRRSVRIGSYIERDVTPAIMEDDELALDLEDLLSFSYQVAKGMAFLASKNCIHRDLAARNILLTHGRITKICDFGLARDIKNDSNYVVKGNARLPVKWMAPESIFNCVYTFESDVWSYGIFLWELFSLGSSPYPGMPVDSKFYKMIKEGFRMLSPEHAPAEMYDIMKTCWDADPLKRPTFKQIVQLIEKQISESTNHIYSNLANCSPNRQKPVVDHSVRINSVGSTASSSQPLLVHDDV
# T2 sequence (P40337 whole entry, looked up): as the sequence (P40337 whole entry partner) above
# [11] = target: T1, von Hippel-Lindau disease tumor suppressor/Receptor-type tyrosine-protein kinase FLT3 (Homo sapiens); test: PROTAC activity at VHL/FLT-3 in human HL-60 cells assessed as reduction in FLT-3 protein level at 10 to 20 uM incubated for 48 hrs by Western blot analysis; assay type: cell-based; conditions: dose 10-20 µM
# [12] = target: T1, von Hippel-Lindau disease tumor suppressor/Receptor-type tyrosine-protein kinase FLT3 (Homo sapiens); test: PROTAC activity at VHL/FLT-3 in human HL-60 cells assessed as reduction in FLT-3 protein level at 10 uM by Western blot analysis; assay type: cell-based; conditions: time 4-48 hrs, TDE = time-dependent effect
# [13] = target: T2, von Hippel-Lindau disease tumor suppressor/Mast/stem cell growth factor receptor Kit (Homo sapiens); test: PROTAC activity at VHL/c-KIT in human HL-60 cells assessed as reduction in c-KIT protein level at 20 uM preincubated with VHL032 for 1 hrs followed by compound addition and measured after for 48 hrs by Western blot analysis; assay type: cell-based
# [14] = target: T1, von Hippel-Lindau disease tumor suppressor/Receptor-type tyrosine-protein kinase FLT3 (Homo sapiens); test: PROTAC activity at VHL/FLT-3 in human HL-60 cells assessed as reduction in FLT-3 protein level at 10 uM incubated for 12 hrs by Western blot analysis; assay type: cell-based
# [15] = target: T1, von Hippel-Lindau disease tumor suppressor/Receptor-type tyrosine-protein kinase FLT3 (Homo sapiens); test: PROTAC activity at VHL/FLT-3 in human HL-60 cells assessed as reduction in FLT-3 protein level at 20 uM preincubated with MG-132 for 1 hrs followed by compound addition and measured after for 48 hrs by Western blot analysis; assay type: cell-based
# [16] = target: T1, von Hippel-Lindau disease tumor suppressor/Receptor-type tyrosine-protein kinase FLT3 (Homo sapiens); test: PROTAC activity at VHL/FLT-3 in human HL-60 cells assessed as reduction in FLT-3 protein level at 20 uM incubated for 24 hrs by Western blot analysis; assay type: cell-based
IC50 (HL-60 [1]) [µM],IC50 (K562 [3]) [µM],Activity [4],Activity [9],Activity [10],Activity [11],Activity [12],Activity [13],Activity [14],Activity [15],Activity [16],Structure (SMILES),IC50 (A498 [2]) [µM],Activity (HL-60 [5]),IC50 [6] [µM],Activity (K562 [7]),Activity (A498 [8])
8.7,5.8,,,,,,,,,,CCN(CC)CCNC(=O)c1c(C)[nH]c(/C=C2\C(=O)Nc3ccc(F)cc32)c1C [SUNITINIB],1.2,,,,
,,Active,,,,,,,,,CC(C)C[C@@H](C=O)NC(=O)[C@H](CC(C)C)NC(=O)[C@H](CC(C)C)NC(=O)OCc1ccccc1 (Cbz-Leu-Leu-Leu-aldehyde),,,,,
36.5,8.4,,Active,,,,,,,,CCN(CCNC(=O)c1c(C)[nH]c(/C=C2\C(=O)Nc3ccc(F)cc32)c1C)CC(=O)N[C@H](C(=O)N1C[C@H](O)C[C@H]1C(=O)NCc1ccc(-c2scnc2C)cc1)C(C)(C)C,26.5,Active,> 100,Active,Active
2.9,11.6,,Active,Active,Active,Tde,Active,Active,Active,Active,Cc1ncsc1-c1ccc(CNC(=O)[C@@H]2C[C@@H](O)CN2C(=O)[C@@H](NC(=O)COCCOCCNC(=O)c2c(C)[nH]c(/C=C3\C(=O)Nc4ccc(F)cc43)c2C)C(C)(C)C)cc1,13.1,Active,> 100,Active,Active
12.7,15.2,,,,,,,,,,Cc1ncsc1-c1ccc(CNC(=O)[C@@H]2C[C@@H](O)CN2C(=O)[C@@H](NC(=O)COCCOCCOCCNC(=O)c2c(C)[nH]c(/C=C3\C(=O)Nc4ccc(F)cc43)c2C)C(C)(C)C)cc1,18.1,,,,
